From patent publication US10168342B2, “Lipid probes and uses thereof” (THE SCRIPPS RESEARCH INSTITUTE, priority 2015, dated 2019)

Columns and labels:
[1] = target: T1, human NUCB1 (Homo sapiens, UniProt Q02818); test: FluoPol assay / high throughput screen with Fl-AEA and recombinant NUCB1; assay type: binding; settings: for suppression of the NUCB1-FluoPol signal (blockade of Fl-AEA binding): competitor lipids, recombinant NUCB1
T1 construct: made in house; host or cells: Escherichia coli BL21(DE3)
T1 sequence (Q02818 27-461): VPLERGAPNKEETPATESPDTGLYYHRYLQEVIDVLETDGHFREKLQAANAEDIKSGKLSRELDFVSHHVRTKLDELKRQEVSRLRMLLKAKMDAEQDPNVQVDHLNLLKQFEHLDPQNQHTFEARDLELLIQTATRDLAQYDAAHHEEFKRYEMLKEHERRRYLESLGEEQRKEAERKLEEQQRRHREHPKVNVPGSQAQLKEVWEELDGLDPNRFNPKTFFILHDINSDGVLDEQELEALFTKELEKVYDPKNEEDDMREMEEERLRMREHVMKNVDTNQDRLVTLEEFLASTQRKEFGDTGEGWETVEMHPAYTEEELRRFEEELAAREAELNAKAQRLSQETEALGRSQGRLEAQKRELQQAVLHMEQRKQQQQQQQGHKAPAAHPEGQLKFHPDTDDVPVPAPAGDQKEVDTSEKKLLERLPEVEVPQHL
Method: FluoPol conditions were optimized by screening various concentrations of Fl-AEA, hNUCB1, CaCl2 and Pluronic F-127 against positive and negative controls. Arachidonic acid (20 μM final) was used as a positive control, and DMSO as a negative. Additionally, protein-free controls were used to normalize for background signal. […] The Z′-factor for these conditions was determined to be 0.54, indicating a high signal to noise assay.
A 10 μL solution of hNUCB1 (1 μM), Fl-AEA (0.5 μM), CaCl2 (20 μM), and Pluronic F-127 (0.01%) was added to a Greiner 384-well plate. Additionally, in some wells protein was omitted to serve as a blank control for background signal. To the protein containing wells 16,000 compounds (50 nL in DMSO, 2 mM) from the Maybridge Hitfinder library were added by a pin-tool robot. Additionally, on each plate to some wells arachidonic acid (20 μM final) or DMSO were added as positive and negative controls to allow normalization between plates. The plates were allowed to incubate for 5 minutes at room temperature, then fluorescence polarization was measured by measuring fluorescence intensity through polarized 595 nm filters. Hits were selected based on maximal probe competition.

[2] = target: T1, human NUCB1; test: In vitro gel-based competition of AEA-DA probe labeling of NUCB1; assay type: binding; settings: AEA-DA 5.0 μM, lipids 20×, NUCB1-transfected HEK293T lysates
Method: Human NUCB1 lacking the N-terminal signal sequence (M1-A26) was subcloned into pET45b(+) vector (Novagen) using the following PCR primers for amplification: 5′-CATCAATTGTGTGCCCCTGGAGAGAG-3′ and 5′-AGCAAGCTTTACAGATGTTGGGGCACC-3′. Following transformation of Escherichia coli strain BL21(DE3) with hNucb1ΔSSpET45b(+), a single colony was isolated and grown in Terrific Broth containing carbenicillin (100 mg/L) at 37° C. to an OD600 of 0.8. Protein expression was induced with IPTG (1.0 mM) and the cells were incubated at 20° C. with shaking overnight. After centrifugation, cells pellets were resuspended in cold buffer containing HEPES (0.05M), NaCl (0.03 M), imidazole (5.0 mM), DNase (0.1 mg/mL), MgCl2 (1.0 mM), CaCl2 (1.0 mM) and EDTA-free Complete Protease Inhibitor Cocktail and lysed using a microfluidizer. […] The suspension was applied to a column and the retained resin was washed with HEPES buffer containing 500 mM NaCl until the eluent was clean of DNA and protein (A280/260) and then with HEPES buffer containing 10 mM imidazole (5 mL/1 mL resin). Protein was then slowly eluted with HEPES buffer containing 50 mM imidazole in 1.0 mL fractions and the combined fractions containing hNUCB1 were passed through a Sephadex G-25M column to remove imidazole and concentrated in an Amicon centrifugal filter device (Millipore). These conditions produced hNUCB1 at approximately 10 mg/L of culture; however, several lower molecular weight fragments were also present in this preparation. hNUCB1 was further purified by size exclusion chromatography.
(§1) Cell lysates (1.0 mg/mL), the indicated lipid probe (2.5 or 5 μM) and, for recombinant NUCB1 competition experiments, purified hNUCB1 (250 nM) and CaCl2 (100 μM) were mixed on ice. DMSO or competitors were then added to the proteome mixture (50 μM) in 96-well plates and each sample was incubated for 15 min at 37° C. The samples were then irradiated with UV light and subjected to previously described click chemistry conditions. As before, each reaction was quenched with 4×SDS loading buffer (17 μL), and proteins were resolved using SDS-PAGE (10% acrylamide gel) and analyzed by in-gel fluorescent scanning on a Hitachi FMBIO-II flatbed fluorescence scanner. NUCB1 competition was quantitatively assessed by measuring the fluorescent intensity of the corresponding gel band using ImageJ 1.48v and normalizing this value by a non-competed gel band to control for loading differences.
(§2) Metabolite data are shown as mean±SEM (n=3-5/group). Differences between two groups were determined using Student's t test (unpaired, two-tailed) and significance was denoted for P values<0.05.

[3] = target: T2, NENF (Homo sapiens, UniProt Q9UMX5); test: In vitro gel-based competition of AEA-DA probe labeling of NENF; assay type: binding; settings: NENF-transfected HEK293T lysates; for competition of AEA-DA probe labeling of recombinant NENF: competitors 1-100 μM
T2 construct: Full-length cDNAs encoding for the each protein of interest were subcloned into pcDNA3.1 myc-His A; Myc (myc-His of pcDNA3.1 myc-His A); expressed in transfected cells; host or cells: HEK293T (lysates)
Method: (§3) Full-length cDNAs encoding for the each protein of interest were subcloned into pcDNA3.1 myc-His A (Invitrogen) or used directly for transfections if available in a eukaryotic expression vector. HEK293T cells were grown to ˜70% confluence under standard growth conditions before adding the appropriate cDNA [control cells (“mock”) received an equal amount of empty pcDNA3.1 myc-His A vector] and FuGENE 6 or X-tremeGENE HP (Roche) transfection reagent according to the manufacturer's instructions. Cells were incubated for 36-48 hours before labeling in situ or harvesting for in vitro experiments.
as §1, with “DMSO or competitors were then added to the proteome mixture (50 μM) in 96-well plates and each sample was incubated for 15 min at 37° C.” left out
as §2

[4] = test system: NAEs, NATs, AA and 2-AG in Neuro2a cells; test: Targeted LC-MS (MRM) analysis of lipids from Neuro2a cells; assay type: cell-based, mouse; settings: Neuro2a cells, 10 μM (PF-7845 1 μM)
Method: Discovery metabolite profiling was performed as described by Saghatelian et al., “Assignment of endogenous substrates to enzymes by global metabolite profiling,” Biochemistry 43:14332-14339 (2004) with several modifications. […] The media from the cells was removed and cells were washed with DPBS (2×5.0 mL) before adding freshly prepared media solutions containing vehicle or compound. After incubating for 6 h at 37° C. and subsequent removal of the media, the cells were harvested by scrapping in cold DPBS (3 mL) and pelleted by centrifugation in glass vials. The pellets were washed once with cold DPBS (3 mL) and then cold […] (2:1) (3 mL) was added. After vortexing, the vials were centrifuged (3,000×g, 10 min, 4° C.) and the bottom (organic) layer was transferred to a new glass vial and concentrated under a stream of N2. Samples were stored at −80° C. until the day of analysis when they were reconstituted in Mobile Phase A (100 μL, see below).
Neuro2a cells were treated and lipids extracted as described above. A mixture of internal standards [AEA-d4 (10 pmol), 2-AG-d5 (100 pmol), AA-d8 (100 pmol), PEA-d4 (100 pmol), PDA (1.0 nmol)] was added to the organic phase prior to extracting cells. NAEs, MAGs, AA and NATs were analyzed similarly to previously described methods (Saghatelian et al., 2004). The following MS parameters were used to measure the indicated metabolites by MRM (precursor ion, product ion, collision energy, polarity): NAE 20:4 (AEA) (348, 62, 12, positive), AEA-d4 (352, 66, 12, positive), NAE 16:0 (PEA) (300, 62, 12, positive), PEA-d4 (304, 62, 12, positive), NAE 18:0 (328, 62, 12, positive), NAE 18:1 (326, 62, 12, positive), NAE 18:2 (324, 62, 12, positive), 2-AG (379, 287, 8, positive), 2-AG-d5 (384, 287, 8, positive), AA (303, 259, 4, negative), AA-d8 (311, 267, 4, negative), NAT 20:4 (410, 80, 35, negative), NAT 22:1 (444, 80, 35, negative), NAT 24:1 (472, 80, 35, negative), NAT 24:0 (474, 80, 35, negative), NAT 26:0 (502, 80, 35, negative). The indicated lipids were quantified by measuring the area under the peak relative to an internal standard (AEA-d4 for AEA and NAE 18:2; PEA-d4 for PEA, NAE 18:1 and NAE 18:0; 2-AG-d5 for 2-AG; AA-d8 for AA and 20:4 NAT; PDA for all other NATs).

[5] = test system: AEA-DA lipid probe targets in Neuro2a cells; settings: Neuro2a cells, AEA-DA 5 μM
[6] = target: T3, recombinant TMEM97 (Homo sapiens, UniProt Q5BJF2); test: In situ gel-based competition of arachidonoyl probe labeling of recombinant TMEM97 in HEK293T cells; assay type: cell-based; settings: TMEM97-transfected HEK293T cells, probe 5 μM, competitor 25 μM
T3 construct: Full-length cDNAs encoding for the each protein of interest were subcloned into pcDNA3.1 myc-His A; expressed in transfected cells; host or cells: HEK293T
Method: Proteomes were diluted to 1.0 mg/mL (total protein concentration) and 50 μL of each proteome was transferred to separate wells in a 96-well plate.
as §3

T2 sequence (Q9UMX5 32-172, species assumed): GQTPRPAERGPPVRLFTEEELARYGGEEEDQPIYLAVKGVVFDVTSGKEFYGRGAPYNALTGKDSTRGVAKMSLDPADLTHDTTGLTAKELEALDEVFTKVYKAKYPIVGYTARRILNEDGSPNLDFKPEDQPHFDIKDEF
T3 sequence (Q5BJF2 whole entry, species assumed): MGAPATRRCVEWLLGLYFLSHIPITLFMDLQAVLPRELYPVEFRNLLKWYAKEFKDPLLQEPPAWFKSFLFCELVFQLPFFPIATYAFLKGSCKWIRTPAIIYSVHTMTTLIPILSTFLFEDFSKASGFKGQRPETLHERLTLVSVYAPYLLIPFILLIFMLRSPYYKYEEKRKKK

CCCCC/C=C\C/C=C\C/C=C\C/C=C\CCCC(=O)OC(CO)CO [2-AG]
suppression of the NUCB1-FluoPol signal (blockade of Fl-AEA binding) [1]: Concentration-dependent suppression | competition of AEA-DA probe labeling of recombinant NUCB1 by lipids [2]: blocked

CCCCC/C=C\C/C=C\C/C=C\C/C=C\CCCC(=O)O [AA, Arachidonic acid]
suppression of the NUCB1-FluoPol signal (blockade of Fl-AEA binding) [1]: Concentration-dependent suppression | competition of AEA-DA probe labeling of recombinant NUCB1 by lipids [2]: blocked | competition of AEA-DA probe labeling of recombinant NENF [3]: competitively blocked

CCCCC/C=C\C/C=C\C/C=C\C/C=C\CCCC(=O)NCCCCCNC(=O)c1ccc(-c2c3ccc(=[N+](C)C)cc-3oc3cc(N(C)C)ccc23)c(C(=O)[O-])c1 [Fl-AEA, 2-(6-(Dimethylamino)-3-(dimethylmninio)-3H-xanthen-9-yl)-5-((5-((5Z,8Z,11Z,14Z)-icosa-5,8,11,14-tetraenamido)pentyl)carbamoyl)benzoate]
binding to recombinant, purified human NUCB1 (FluoPol signal) ([1]; Fl-AEA 0.5 μM, NUCB1 1.0 μM): substantial increase in fluorescence polarization (FluoPol) signal

O=C(Nc1cccnn1)N1CCC(=Cc2cccc(Oc3ccc(C(F)(F)F)cn3)c2)CC1 [PF-7845, reference compound]
2-AG levels [4]: greater degree | cellular concentrations of NAEs and NATs ([4]; 6 h): elevated

CCCCC[C@H](O)/C=C/[C@H]1C(=O)C[C@H](O)[C@@H]1C/C=C\CCCC(=O)NCCO [PGD2-EA]
suppression of the NUCB1-FluoPol signal (blockade of Fl-AEA binding) [1]: minimal blockade

CCCCC[C@H](O)/C=C/[C@@H]1[C@@H](C/C=C\CCCC(=O)NCCO)[C@@H](O)C[C@H]1O [PGF2α-EA]
suppression of the NUCB1-FluoPol signal (blockade of Fl-AEA binding) [1]: minimal blockade

CC(C)CCC[C@@H](C)[C@H]1CC[C@H]2[C@@H]3CC=C4C[C@@H](O)CC[C@]4(C)[C@H]3CC[C@]12C [cholesterol]
suppression of the NUCB1-FluoPol signal (blockade of Fl-AEA binding) [1]: minimal blockade

COc1cc2c(cc1OC)CN(CCc1ccc(NC(=O)c3cccc4c(=O)c5cccc(OC)c5[nH]c34)cc1)CC2 [elacridar, reference compound]
concentration blocking lipid probe labeling of FECH, ABCB1B and TMEM97 (as low as) [5]: 0.5 µM | competition of arachidonoyl probe labeling of recombinant TMEM97 [6]: competition was observed

C=Cc1c(C)c2cc3[n-]c(cc4nc(cc5nc(cc1[n-]2)C(C)=C5CCC(=O)O)C(CCC(=O)O)=C4C)c(C)c3C=C.[Cl-].[Fe+3] [hemin]
IC50 ([3]; read-out: IC50, inhibition of AEA-DA labeling of NENF): 2000 nM | competition of AEA-DA probe labeling of recombinant NENF [3]: inhibited in a concentration-dependent manner

CCCCC[C@H](O)/C=C/[C@H]1C=CC(=O)[C@@H]1CCCCCCC(=O)O [prostaglandin A1]
suppression of the NUCB1-FluoPol signal (blockade of Fl-AEA binding) [1]: minimal blockade

CCCCC[C@H](O)/C=C/C1=C(CCCCCCC(=O)O)C(=O)CC1 [prostaglandin B1]
suppression of the NUCB1-FluoPol signal (blockade of Fl-AEA binding) [1]: minimal blockade

CCCCC[C@H](O)/C=C/[C@H]1C(=O)C[C@H](O)[C@@H]1C/C=C\CCCC(=O)O [prostaglandin D2]
suppression of the NUCB1-FluoPol signal (blockade of Fl-AEA binding) [1]: minimal blockade

CCCCCCCCCCCCC/C=C/[C@@H](O)[C@@H](N)CO [sphingosine]
suppression of the NUCB1-FluoPol signal (blockade of Fl-AEA binding) [1]: minimal blockade
